Read-outs that look alike come from different tables or passages of the source.
Tested on: RSV (Long)
Test: RSV cytopathic effect (CPE)-based viral replication assay
Format: cell-based, respiratory syncytial virus (RSV)
Settings: read-out: EC50 (nm)
Outline: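 HEp-2 cells, 2,500 per well in DMEM with 2% heat-inactivated FBS, treated with 10-point compound dilutions and infected with RSV Long at MOI 0.015. After 3 days at 37 °C, 5% CO2, viability read by CellTiter-Glo luminescence; EC50 derived from CPE data.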

[1] = human respiratory syncytial virus, HEp-2, 72 h, HEp-2 cells infected with RSV Long at MOI 0.015, 3 days at 37° C., cell viability by CellTiter-Glo luminescence
[2] = human respiratory syncytial virus, HEp-2, 72 h

EC50 [1] [nM] | Compound | other results
41 | O=c1n(Cc2ncc3cc(F)ccc3c2CCCCO)c2cnccc2n1C1CC1 [Example 6g, 1-cyclopropyl-3-((7-fluoro-4-(4-hydroxybutyl)isoquinolin-3-yl)methyl)-1H-imidazo[4,5-c]pyridin-2(3H)-one] | –
3 | CS(=O)(=O)N1CCC2(CC1)C(=O)N(Cc1ncc3ccccc3c1-c1ccc(C(N)C(F)(F)F)nc1)c1cnccc12 (stereo not drawn) [Example 158c, 1′-((4-(6-(1-amino-2,2,2-trifluoroethyl)pyridin-3-yl)isoquinolin-3-yl)methyl)-1-(methylsulfonyl)spiro[piperidine-4,3′-pyrrolo[2,3-c]pyridin]-2′(1′H)-one] | –
0.4 | CC1(OC(=O)N2CC3(C2)C(=O)N(Cc2ncc4ccccc4c2-c2ccc(C#N)nc2)c2ccccc23)CC1 [Example 91b, 1-Methylcyclopropyl 1′-((4-(6-cyanopyridin-3-yl)isoquinolin-3-yl)methyl)-2′-oxospiro[azetidine-3,3′-indoline]-1-carboxylate] | –
110 | O=c1n(Cc2ncc3cc(Cl)ccc3c2CCCCO)c2cnccc2n1C1CC1 [Example 19b, 3-((7-chloro-4-(4-hydroxybutyl)isoquinolin-3-yl)methyl)-1-cyclopropyl-1H-imidazo[4,5-c]pyridin-2(3H)-one] | –
6 | O=C(C1CCNCC1)N1CC2(C1)C(=O)N(Cc1ncc3ccccc3c1-c1cccnc1)c1ccccc12 [Example 149b, 1-(Piperidine-4-carbonyl)-1′-((4-(pyridin-3-yl)isoquinolin-3-yl)methyl)spiro[azetidine-3,3′-indolin]-2′-one] | –
1.2 | CNC1(C(=O)N2CCC3(CC2)C(=O)N(Cc2ncc4ccccc4c2-c2ccc(C(N)=O)nc2)c2cnccc23)CC1 [Example 108b, 5-(3-((1-(1-(Methylamino)cyclopropanecarbonyl)-2′-oxospiro[piperidine-4,3′-pyrrolo[2,3-c]pyridin]-1′(2′H)-yl)methyl)isoquinolin-4-yl)picolinamide] | –
5.5 | CS(=O)(=O)Nc1ccc(-c2c(CN3C(=O)C4(CN(C(=O)C5(N)CC5)C4)c4ccccc43)ncc3ccccc23)cc1 [Example 114c, N-(4-(3-((1-(1-aminocyclopropanecarbonyl)-2′-oxospiro[azetidine-3,3′-indolin]-1′-yl)methyl)isoquinolin-4-yl)phenyl)methanesulfonamide] | –
10 | COC(=O)N1CCC2(CC1)C(=O)N(Cc1ncc3ccccc3c1-c1ccc(C#N)cc1)c1cnccc12 [Example 12b, Methyl 1′-((4-(4-cyanophenyl)isoquinolin-3-yl)methyl)-2′-oxo-1′,2′-dihydrospiro[piperidine-4,3′-pyrrolo[2,3-c]pyridine]-1-carboxylate] | –

Second part, the molecule before the results:

Compound | EC50 [1] [nM] | other results
COC(=O)N1CCC(n2c(=O)n(Cc3ncc4cccc(F)c4c3CCCCO)c3cnccc32)CC1 [Example 30, Methyl 4-(3-((5-fluoro-4-(4-hydroxybutyl)isoquinolin-3-yl)methyl)-2-oxo-2,3-dihydro-1H-imidazo[4,5-c]pyridin-1-yl)piperidine-1-carboxylate] | 18 | –
CS(=O)(=O)N1CCC2(CC1)C(=O)N(Cc1ncc3cc(Cl)ccc3c1-c1ccncc1)c1cnccc12 [Example 2009] | 0.35 | –
CC(C)(C)NC(=O)N1CC2(C1)C(=O)N(Cc1ncc3ccccc3c1-c1ccc(C#N)nc1)c1ccccc12 [Example 81] | 1.4 | –
COC(=O)N1CCC(n2c(=O)n(Cc3ncc4ccccc4c3CCCCO)c3cccc(Cl)c32)CC1 [Example 16, Methyl 4-(7-chloro-3-((4-(4-hydroxybutyl)isoquinolin-3-yl)methyl)-2-oxo-2,3-dihydro-1H-benzo[d]imidazol-1-yl)piperidine-1-carboxylate] | 19 | –
CS(=O)(=O)N1CC2(C1)C(=O)N(Cc1ncc3ccccc3c1-c1ccc(C(F)(F)F)cc1)c1ccccc12 [Example 79, 1-(Methylsulfonyl)-1′-((4-(4-(trifluoromethyl)phenyl)isoquinolin-3-yl)methyl)spiro[azetidine-3,3′-indolin]-2′-one] | 8.7 | –
O=c1n(Cc2ncc3ccccc3c2-c2ccc(O)nc2)c2ccccc2n1C1CC1 [Example 88, 1-Cyclopropyl-3-((4-(6-hydroxypyridin-3-yl)isoquinolin-3-yl)methyl)-1H-benzo[d]imidazol-2(3H)-one] | 8.5 | –
CS(=O)(=O)N1CC2(C1)C(=O)N(Cc1ncc3ccccc3c1-c1ccc(C#N)nc1)c1ccccc12 [Example 45] | 3 | –
CS(=O)(=O)N1CCC2(CC1)C(=O)N(Cc1ncc3ccccc3c1-c1ccc(C3(N)COC3)nc1)c1cnccc12 [Example 2038] | 11 | –
NC1(C(=O)N2CCC3(CC2)C(=O)N(Cc2ncc4ccccc4c2-c2cccnc2)c2cnccc23)CC1 [Example 137] | 5.4 | –
COC(=O)N1CC2(C1)C(=O)N(Cc1ncc3ccccc3c1-c1ccc(NS(C)(=O)=O)cc1)c1ccccc12 [Example 105, methyl 1′-((4-(4-(methylsulfonamido)phenyl)isoquinolin-3-yl)methyl)-2′-oxospiro[azetidine-3,3′-indoline]-1-carboxylate] | 0.85 | –
N#Cc1ccc(-c2c(CN3c4ccccc4[C@]4(C[C@@H](O)C4)C3=O)ncc3ccccc23)cn1 [Example 83] | 9 | –
N#Cc1ccc(-c2c(CN3c4ccccc4[C@]4(C[C@H](O)C4)C3=O)ncc3ccccc23)cn1 [Example 82] | 11 | –
COC(=O)N1CC2(C1)C(=O)N(Cc1ncc3ccccc3c1-c1ccc(C#N)c(F)c1)c1ccccc12 [Example 93, Methyl 1′-((4-(4-cyano-3-fluorophenyl)isoquinolin-3-yl)methyl)-2′-oxospiro[azetidine-3,3′-indoline]-1-carboxylate] | – | EC50 [2]: 4.4 nM
NC1(C(=O)N2CCC3(CC2)C(=O)N(Cc2ncc4ccccc4c2-c2ccc(S(N)(=O)=O)cc2)c2cnccc23)CC1 [Example 2015] | 3.9 | –
CC(C)(C)c1ccc(-c2c(CN3C(=O)C4(CN(S(C)(=O)=O)C4)c4ccccc43)ncc3ccccc23)cc1 [Example 71, 1′-((4-(4-(Tert-butyl)phenyl)isoquinolin-3-yl)methyl)-1-(methylsulfonyl)spiro[azetidine-3,3′-indolin]-2′-one] | 200 | –
N[C@H]1CCN(c2ccc3c(CCCCO)c(Cn4c(=O)n(C5CC5)c5ccncc54)ncc3c2)C1 [Example 33, (S)-3-((7-(3-aminopyrrolidin-1-yl)-4-(4-hydroxybutyl)isoquinolin-3-yl)methyl)-1-cyclopropyl-1H-imidazo[4,5-c]pyridin-2(3H)-one] | 1300 | –
CC1(n2c(=O)n(Cc3ncc4ccccc4c3-c3ccc(C4(N)COC4)nc3)c3cnccc32)CC1 [Example 2022] | 19 | –
COC(=O)NC1CC2(C1)C(=O)N(Cc1ncc3ccccc3c1-c1ccc(C#N)nc1)c1ccccc12 (stereo not drawn) [Example 84-2] | – | EC50 (HEp-2 cells infected with RSV Long at MOI 0.015, 3 days at 37° C., cell viability by CellTiter-Glo luminescence): 4.5 nM
NC1(C(=O)N2CCC3(CC2)C(=O)N(Cc2ncc4ccccc4c2-c2ccncc2)c2cnccc23)CC1 [Example 2016] | 7.1 | –
NC1(C(=O)N2CC3(C2)C(=O)N(Cc2ncc4ccccc4c2-c2cncc(F)c2)c2ccccc23)CC1 [Example 94, 1-(1-aminocyclopropanecarbonyl)-1′-((4-(5-fluoropyridin-3-yl)isoquinolin-3-yl)methyl)spiro[azetidine-3,3′-indolin]-2′-one] | 20 | –
NCCCC(=O)N1CCC2(CC1)C(=O)N(Cc1ncc3ccccc3c1-c1cccnc1)c1cnccc12 [Example 142, 1-(4-aminobutanoyl)-1′-((4-(pyridin-3-yl)isoquinolin-3-yl)methyl)spiro[piperidine-4,3′-pyrrolo[2,3-c]pyridin]-2′(1′H)-one] | 5.8 | –
NC1(C(=O)N2CCC3(CC2)C(=O)N(Cc2ncc4ccccc4c2-c2cn[nH]c2)c2cnccc23)CC1 [Example 2030] | 5.7 | –
COC(=O)N1CC2(C1)C(=O)N(Cc1ncc3ccccc3c1-c1ccc(C#N)cn1)c1ccccc12 [Example 101, Methyl 1′-((4-(5-cyanopyridin-2-yl)isoquinolin-3-yl)methy)-2′-oxospiro[azetidine-3,3′-indoline]-1-carboxylate] | – | EC50 [2]: 11 nM
CC1(n2c(=O)n(Cc3ncc4ccccc4c3-c3ccc(C4(N)CC4)nc3)c3cnccc32)CC1 [Example 2001] | 9.5 | –
CN(C)C(=O)c1ccc(-c2c(CN3C(=O)C4(CCN(C(=O)C5(N)CC5)CC4)c4ccncc43)ncc3ccccc23)cn1 [Example 120, 5-(3-((1-(1-aminocyclopropanecarbonyl)-2′-oxospiro[piperidine-4,3′-pyrrolo[2,3-c]pyridin]-1′(2′H)-yl)methyl)isoquinolin-4-yl)-N,N-dimethylpicolinamide] | 4.7 | –
CNC1(C(=O)N2CCC3(CC2)C(=O)N(Cc2ncc4ccccc4c2-c2ccc(C(=O)NC4CC4)nc2)c2cnccc23)CC1 [Example 109, N-cyclopropyl-5-(3-((1-(1-(methylamino)cyclopropanecarbonyl)-2′-oxospiro[piperidine-4,3′-pyrrolo[2,3-c]pyridin]-1′(2′H)-yl)methyl)isoquinolin-4-yl)picolinamide] | 3.8 | –
NCCC(=O)N1CCC2(CC1)C(=O)N(Cc1ncc3ccccc3c1-c1cccnc1)c1cnccc12 [Example 141, 1-(3-aminopropanoyl)-1′-((4-(pyridin-3-yl)isoquinolin-3-yl)methyl)spiro[piperidine-4,3′-pyrrolo[2,3-c]pyridin]-2′(1′H)-one] | 11 | –
N#Cc1ccc(-c2c(CN3C(=O)C4(CCN(C(=O)OCCO)CC4)c4ccncc43)ncc3ccccc23)cn1 [Example 68, 2-hydroxyethyl 1′-((4-(6-cyanopyridin-3-yl)isoquinolin-3-yl)methyl)-2′-oxo-1′,2′-dihydrospiro[piperidine-4,3′-pyrrolo[2,3-c]pyridine]-1-carboxylate] | 2.5 | –

— patent US20190002436A1, “RESPIRATORY SYNCYTIAL VIRUS INHIBITORS” (MEDIVIR AB, priority 2015, published 2019)
